The source of these data is the supplement of paper PMC10307832.

What all share (assay): relative viability (nuclei count vs DMSO), 5 days (fraction); higher = more cells survive
Compound in assay [1]: CC1=CC=C(C=C1)C(=O)CN2C3=C(CCCC3)SC2=N [Pifithrin_alpha] + CC(=O)c1c(C)c2cnc(Nc3ccc(N4CCNCC4)cn3)nc2n(C2CCCC2)c1=O [Palbociclib] (partner 0.5 µM)
An outline of the steps:
(§1)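 Relative viability divides the nuclei count in treated wells by that in vehicle wells. Lung cancer cell lines were seeded in 1536-well plates, dosed by pin tool the next day, and fixed and stained after 5 days in one step with final 0.05% Triton X-100, 1% formaldehyde and 1 ug/ml Hoechst. Dosing was a single drug or a fixed anchor-drug dose plus five library-drug doses (not always all listed) in √10 steps, and values are medians of duplicate plates imaged at 4×.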

Compound in assay [2]: CC1=CC=C(C=C1)C(=O)CN2C3=C(CCCC3)SC2=N [Pifithrin_alpha] + CC(C)C[C@H](NC(=O)[C@H](Cc1ccccc1)NC(=O)c1cnccn1)B(O)O [Bortezomib] (partner 0.002 µM)
An outline of the steps:
as §1

Compound in the assay “Axitinib + Linsitinib”: CNC(=O)c1ccccc1Sc1ccc2c(/C=C/c3ccccn3)n[nH]c2c1 [Axitinib] + C[C@]1(O)C[C@@H](c2nc(-c3ccc4ccc(-c5ccccc5)nc4c3)c3c(N)nccn32)C1 [Linsitinib] (partner 1 µM)
The procedure, abridged:
as §1

Compound in the assay “Bemcentinib + OSI-027”: Nc1nc(Nc2ccc3c(c2)CC[C@@H](N2CCCC2)CC3)nn1-c1cc2c(nn1)-c1ccccc1CCC2 [Bemcentinib] + COc1cccc2cc(-c3nc([C@H]4CC[C@H](C(=O)O)CC4)n4ncnc(N)c34)[nH]c12 [OSI-027] (partner 0.5 µM)
An outline of the steps:
as §1

With NCI-H3122, the relative viability in assay [1] (first compound 1 µM) amounted to 0.175; in assay [1] (first compound 3.162 µM) it was 0.211; in assay [1] (first compound 10 µM), 0.193; in assay [1] (first compound 31.62 µM), 0.146; in assay [1] (first compound 100 µM) it was 0.195; in assay [2] (first compound 1 µM) it was 1.03. Further, the relative viability in assay [2] (first compound 3.162 µM) was 0.99; in assay [2] (first compound 10 µM), 1.05; in assay [2] (first compound 31.62 µM) it was 0.904; in assay [2] (first compound 100 µM) it was 1; in the assay with Axitinib + Linsitinib (first compound 0.005 µM), 1.02; in the assay with Axitinib + Linsitinib (first compound 0.01581 µM) it was 0.991. The relative viability with Axitinib + Linsitinib (first compound 0.05 µM) worked out at 1.05; with Axitinib + Linsitinib (first compound 0.1581 µM), 1.05; with Axitinib + Linsitinib (first compound 0.5 µM), 1.07; in the assay with Bemcentinib + OSI-027 (first compound 0.1265 µM) it was 1.08; in the assay with Bemcentinib + OSI-027 (first compound 0.4 µM), 0.978; with Bemcentinib + OSI-027 (first compound 1.265 µM) it was 1.11. For the same cell line, the relative viability with Bemcentinib + OSI-027 (first compound 4 µM) amounted to 0.983.

PC-3 [JPC-3]: the relative viability in assay [1] (first compound 3.162 µM) is 0.519; in assay [1] (first compound 31.62 µM), 0.455; in assay [1] (first compound 100 µM) it was 0.458; in assay [2] (first compound 1 µM), 0.819; in assay [2] (first compound 3.162 µM), 0.877; in assay [2] (first compound 10 µM) it was 0.77. The relative viability amounted to 0.583 in assay [2] (first compound 31.62 µM); 0.613 in assay [2] (first compound 100 µM); 0.948 with Axitinib + Linsitinib (first compound 0.005 µM); 0.972 with Axitinib + Linsitinib (first compound 0.05 µM); 0.944 in the assay with Axitinib + Linsitinib (first compound 0.1581 µM); 0.986 with Axitinib + Linsitinib (first compound 0.5 µM). The relative viability in the assay with Bemcentinib + OSI-027 (first compound 0.04 µM) turned out to be 0.765; in the assay with Bemcentinib + OSI-027 (first compound 0.1265 µM) it was 0.727; with Bemcentinib + OSI-027 (first compound 0.4 µM) it was 0.829; in the assay with Bemcentinib + OSI-027 (first compound 1.265 µM) it was 0.739; with Bemcentinib + OSI-027 (first compound 4 µM) it was 0.752.

With PC-14, the relative viability was 0.651 in assay [1] (first compound 1 µM); 0.513 in assay [1] (first compound 3.162 µM); 0.515 in assay [1] (first compound 10 µM); 0.191 in assay [1] (first compound 31.62 µM); 0.134 in assay [1] (first compound 100 µM); 0.821 in assay [2] (first compound 1 µM). Further, the relative viability in assay [2] (first compound 3.162 µM) was determined as 0.829; in assay [2] (first compound 10 µM) it was 0.964; in assay [2] (first compound 31.62 µM) it was 0.888; in assay [2] (first compound 100 µM) it was 0.882; with Axitinib + Linsitinib (first compound 0.005 µM) it was 1.07; in the assay with Axitinib + Linsitinib (first compound 0.01581 µM), 0.895. Besides, the relative viability with Axitinib + Linsitinib (first compound 0.05 µM) is 1.03; with Axitinib + Linsitinib (first compound 0.1581 µM) it was 0.945; with Axitinib + Linsitinib (first compound 0.5 µM) it was 0.944; in the assay with Bemcentinib + OSI-027 (first compound 0.04 µM) it was 0.84; with Bemcentinib + OSI-027 (first compound 0.1265 µM) it was 1.08; in the assay with Bemcentinib + OSI-027 (first compound 0.4 µM) it was 0.938. Besides, the relative viability is 0.953 in the assay with Bemcentinib + OSI-027 (first compound 1.265 µM) and 0.81 in the assay with Bemcentinib + OSI-027 (first compound 4 µM).

Take RERF-LC-KJ: the relative viability amounted to 0.91 in assay [1] (first compound 1 µM); 0.974 in assay [1] (first compound 3.162 µM); 0.886 in assay [1] (first compound 10 µM); 0.66 in assay [1] (first compound 31.62 µM); 0.635 in assay [1] (first compound 100 µM); 0.798 in assay [2] (first compound 1 µM). The relative viability in assay [2] (first compound 3.162 µM) amounted to 0.855; in assay [2] (first compound 10 µM), 1.07; in assay [2] (first compound 31.62 µM), 1; in assay [2] (first compound 100 µM), 0.721; in the assay with Axitinib + Linsitinib (first compound 0.005 µM), 0.962; in the assay with Axitinib + Linsitinib (first compound 0.01581 µM) it was 0.81. Also, the relative viability in the assay with Axitinib + Linsitinib (first compound 0.05 µM) worked out at 0.901; with Axitinib + Linsitinib (first compound 0.1581 µM) it was 0.834; with Axitinib + Linsitinib (first compound 0.5 µM), 0.947; in the assay with Bemcentinib + OSI-027 (first compound 0.04 µM), 0.594; in the assay with Bemcentinib + OSI-027 (first compound 0.1265 µM), 0.552; with Bemcentinib + OSI-027 (first compound 0.4 µM), 0.571. For the same cell line, the relative viability in the assay with Bemcentinib + OSI-027 (first compound 1.265 µM) came to 0.58; with Bemcentinib + OSI-027 (first compound 4 µM), 0.567.

With SK-LU-1, the relative viability in assay [1] (first compound 1 µM) is 0.349; in assay [1] (first compound 3.162 µM), 0.412; in assay [1] (first compound 10 µM), 0.405; in assay [1] (first compound 31.62 µM), 0.308; in assay [1] (first compound 100 µM) it was 0.413; in assay [2] (first compound 1 µM), 0.891. Besides, the relative viability in assay [2] (first compound 3.162 µM) is 1.4; in assay [2] (first compound 10 µM), 1.41; in assay [2] (first compound 31.62 µM), 0.574; in assay [2] (first compound 100 µM) it was 1.39; with Axitinib + Linsitinib (first compound 0.005 µM), 1.25; in the assay with Axitinib + Linsitinib (first compound 0.01581 µM), 1.28. For the same cell line, the relative viability with Axitinib + Linsitinib (first compound 0.05 µM) was 1.18; with Axitinib + Linsitinib (first compound 0.1581 µM), 1.17; with Axitinib + Linsitinib (first compound 0.5 µM) it was 1.36; with Bemcentinib + OSI-027 (first compound 0.04 µM), 0.37; with Bemcentinib + OSI-027 (first compound 0.1265 µM), 0.382; with Bemcentinib + OSI-027 (first compound 0.4 µM) it was 0.35. Moreover, the relative viability with Bemcentinib + OSI-027 (first compound 1.265 µM) is 0.369; with Bemcentinib + OSI-027 (first compound 4 µM), 0.331.

Turning to SW 1573, the relative viability in assay [1] (first compound 3.162 µM) was determined as 0.395; in assay [1] (first compound 10 µM), 0.367; in assay [1] (first compound 31.62 µM) it was 0.241; in assay [1] (first compound 100 µM), 0.266; in assay [2] (first compound 1 µM), 1.01; in assay [2] (first compound 3.162 µM) it was 0.98. The relative viability stood at 1.13 in assay [2] (first compound 10 µM); 0.899 in assay [2] (first compound 31.62 µM); 1.14 in assay [2] (first compound 100 µM); 0.911 with Axitinib + Linsitinib (first compound 0.005 µM); 0.855 with Axitinib + Linsitinib (first compound 0.01581 µM); 0.899 with Axitinib + Linsitinib (first compound 0.05 µM). The relative viability in the assay with Axitinib + Linsitinib (first compound 0.1581 µM) is 0.8; with Axitinib + Linsitinib (first compound 0.5 µM) it was 0.84; with Bemcentinib + OSI-027 (first compound 0.04 µM) it was 0.609; in the assay with Bemcentinib + OSI-027 (first compound 0.1265 µM), 0.731; with Bemcentinib + OSI-027 (first compound 0.4 µM) it was 0.677; with Bemcentinib + OSI-027 (first compound 1.265 µM), 0.589. Also, the relative viability with Bemcentinib + OSI-027 (first compound 4 µM) amounted to 0.661.

For the cell line UMC-11, the relative viability amounted to 0.342 in assay [1] (first compound 1 µM); 0.289 in assay [1] (first compound 3.162 µM); 0.301 in assay [1] (first compound 10 µM); 0.283 in assay [1] (first compound 31.62 µM); 0.296 in assay [1] (first compound 100 µM); 0.818 in assay [2] (first compound 1 µM). The relative viability in assay [2] (first compound 3.162 µM) was 0.803; in assay [2] (first compound 10 µM), 0.759; in assay [2] (first compound 31.62 µM), 0.574; in assay [2] (first compound 100 µM) it was 1.05; with Axitinib + Linsitinib (first compound 0.005 µM), 1.08; in the assay with Axitinib + Linsitinib (first compound 0.01581 µM) it was 0.982. Further, the relative viability worked out at 1.02 with Axitinib + Linsitinib (first compound 0.05 µM); 1.04 with Axitinib + Linsitinib (first compound 0.1581 µM); 1.1 in the assay with Axitinib + Linsitinib (first compound 0.5 µM); 0.466 with Bemcentinib + OSI-027 (first compound 0.04 µM); 0.528 with Bemcentinib + OSI-027 (first compound 0.1265 µM); 0.504 with Bemcentinib + OSI-027 (first compound 0.4 µM). Also, the relative viability in the assay with Bemcentinib + OSI-027 (first compound 1.265 µM) stood at 0.516; in the assay with Bemcentinib + OSI-027 (first compound 4 µM), 0.473.
